Test results published in patent publication US20260224716A1, “PTH ANALOGS FOR THE TREATMENT OF HYPOPARATHYROIDISM” (priority 2020, published 2026).

Legend:
[1] = Cleavage half-life / conversion of PTH prodrugs in PBS pH 7.4, 37° C. by LC-MS; type: physicochemical; conditions: for half-life: PBS buffer, dipeptide cleavage from PTH prodrug, PBS pH 7.4, 37° C., read-out: Half life (converted)
Procedure: The resulting solution was incubated at 37° C. Aliquots were taken at designed time points and analyzed by LC-MS. […] Flow rate of 1 mL/min and a gradient of 10%-80% acetonitrile in water, with 0.1% trifluoroacetic acid over 10 min. […] The concentration of prodrug and drug were determined by their relative peak areas. The […] dissociation rate constant of the prodrug was determined by plotting the logarithm in the concentration of the prodrug at various time points.

PTH1 receptor = target: T1, PTH1 receptor (Homo sapiens, UniProt Q03431); experiment: Luciferase-based reporter gene assay for cAMP detection (HEK293 cells); type: cell-based
T1 construct: expressed in transfected cells; host or cells: HEK293
T1 sequence (Q03431 27-593): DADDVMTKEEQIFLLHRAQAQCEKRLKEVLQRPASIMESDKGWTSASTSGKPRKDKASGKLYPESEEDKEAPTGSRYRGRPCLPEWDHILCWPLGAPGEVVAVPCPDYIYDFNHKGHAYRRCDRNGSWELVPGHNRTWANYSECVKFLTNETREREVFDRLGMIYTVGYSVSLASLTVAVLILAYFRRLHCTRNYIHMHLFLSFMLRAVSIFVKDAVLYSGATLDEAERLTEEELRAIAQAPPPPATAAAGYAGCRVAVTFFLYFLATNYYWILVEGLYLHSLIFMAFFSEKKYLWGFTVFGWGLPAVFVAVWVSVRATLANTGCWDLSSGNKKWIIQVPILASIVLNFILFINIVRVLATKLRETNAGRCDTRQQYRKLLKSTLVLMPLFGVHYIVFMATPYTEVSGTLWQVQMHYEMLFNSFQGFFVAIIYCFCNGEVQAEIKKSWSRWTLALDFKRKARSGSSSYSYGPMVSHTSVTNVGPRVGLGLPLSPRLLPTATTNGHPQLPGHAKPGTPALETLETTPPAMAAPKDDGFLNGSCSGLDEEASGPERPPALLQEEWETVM
Procedure: At the end of the incubation, 50 μL of Steady-Lite Plus (PerkinElmer, Waltham, MA) were added to each well. The plate was shaken briefly, incubated four minutes and light output was measured on an EnSpire Alpha Multi-mode Plate Reader (PerkinElmer, Waltham, MA).

| SMILES | half-life [1] [h] | Half life, fold faster than Sar (vs SEQ ID NO: 52) ([1]; comparator SEQ ID NO: 52) [faster than Sar] | also measured |
| --- | --- | --- | --- |
| CC[C@H](C)[C@H](NC(=O)[C@H](CCC(=O)O)NC(=O)[C@H](CO)NC(=O)[C@@H](NC(=O)[C@H](CO)NC(=O)CN(C(=O)[C@@H](N)CCCCNC(=O)CC[C@H](NC(=O)CCCCCCCCCCCCCCCCC(=O)O)C(=O)O)C(C)C)C(C)C)C(=O)N[C@@H](CCC(N)=O)C(=O)N[C@@H](CC(C)C)C(=O)N[C@@H](CCSC)C(=O)N[C@@H](Cc1c[nH]cn1)C(=O)N[C@@H](CC(N)=O)C(=O)N[C@@H](CC(C)C)C(=O)NCC(=O)N[C@@H](CCCCN)C(=O)N[C@@H](Cc1c[nH]cn1)C(=O)N[C@@H](CC(C)C)C(=O)N[C@@H](CC(N)=O)C(=O)N[C@@H](CO)C(=O)N[C@@H](CCSC)C(=O)N[C@@H](CCC(=O)O)C(=O)N[C@@H](CCCNC(=N)N)C(=O)N[C@H](C(=O)N[C@@H](CCC(=O)O)C(=O)N[C@@H](Cc1c[nH]c2ccccc12)C(=O)N[C@@H](CC(C)C)C(=O)N[C@@H](CCCNC(=N)N)C(=O)N[C@@H](CCCCN)C(=O)N[C@@H](CCCCN)C(=O)N[C@@H](CC(C)C)C(=O)N[C@@H](CCC(N)=O)C(=O)N[C@@H](CC(=O)O)C(=O)N[C@H](C(=O)N[C@@H](Cc1c[nH]cn1)C(=O)N[C@@H](CC(N)=O)C(=O)N[C@@H](Cc1ccccc1)C(=O)O)C(C)C)C(C)C [SEQ ID NO: 48] | 67 | 1.9 | Half life, fold slower than dK (vs SEQ ID NO: 46) ([1]; comparator SEQ ID NO: 46): 1.4 slower than dK |
| CC[C@H](C)[C@H](NC(=O)[C@H](CCC(=O)O)NC(=O)[C@H](CO)NC(=O)[C@@H](NC(=O)[C@H](CO)NC(=O)CN(C)C(=O)[C@@H](N)CCCCNC(=O)CC[C@H](NC(=O)CCCCCCCCCCCCCCCCC(=O)O)C(=O)O)C(C)C)C(=O)N[C@@H](CCC(N)=O)C(=O)N[C@@H](CC(C)C)C(=O)N[C@@H](CCSC)C(=O)N[C@@H](Cc1c[nH]cn1)C(=O)N[C@@H](CC(N)=O)C(=O)N[C@@H](CC(C)C)C(=O)NCC(=O)N[C@@H](CCCCN)C(=O)N[C@@H](Cc1c[nH]cn1)C(=O)N[C@@H](CC(C)C)C(=O)N[C@@H](CC(N)=O)C(=O)N[C@@H](CO)C(=O)N[C@@H](CCSC)C(=O)N[C@@H](CCC(=O)O)C(=O)N[C@@H](CCCNC(=N)N)C(=O)N[C@H](C(=O)N[C@@H](CCC(=O)O)C(=O)N[C@@H](Cc1c[nH]c2ccccc12)C(=O)N[C@@H](CC(C)C)C(=O)N[C@@H](CCCNC(=N)N)C(=O)N[C@@H](CCCCN)C(=O)N[C@@H](CCCCN)C(=O)N[C@@H](CC(C)C)C(=O)N[C@@H](CCC(N)=O)C(=O)N[C@@H](CC(=O)O)C(=O)N[C@H](C(=O)N[C@@H](Cc1c[nH]cn1)C(=O)N[C@@H](CC(N)=O)C(=O)N[C@@H](Cc1ccccc1)C(=O)O)C(C)C)C(C)C [SEQ ID NO: 52] | 130 |  | Half life, fold slower than dK (vs SEQ ID NO: 45) ([1]; comparator SEQ ID NO: 45): 1.4 slower than dK |
| CC[C@H](C)[C@H](NC(=O)[C@H](CCC(=O)O)NC(=O)[C@H](CO)NC(=O)[C@@H](NC(=O)[C@H](CO)NC(=O)[C@H](C)N(C)C(=O)[C@@H](N)CCCCNC(=O)CC[C@H](NC(=O)CCCCCCCCCCCCCCCCC(=O)O)C(=O)O)C(C)C)C(=O)N[C@@H](CCC(N)=O)C(=O)N[C@@H](CC(C)C)C(=O)N[C@@H](CCSC)C(=O)N[C@@H](Cc1c[nH]cn1)C(=O)N[C@@H](CC(N)=O)C(=O)N[C@@H](CC(C)C)C(=O)NCC(=O)N[C@@H](CCCCN)C(=O)N[C@@H](Cc1c[nH]cn1)C(=O)N[C@@H](CC(C)C)C(=O)N[C@@H](CC(N)=O)C(=O)N[C@@H](CO)C(=O)N[C@@H](CCSC)C(=O)N[C@@H](CCC(=O)O)C(=O)N[C@@H](CCCNC(=N)N)C(=O)N[C@H](C(=O)N[C@@H](CCC(=O)O)C(=O)N[C@@H](Cc1c[nH]c2ccccc12)C(=O)N[C@@H](CC(C)C)C(=O)N[C@@H](CCCNC(=N)N)C(=O)N[C@@H](CCCCN)C(=O)N[C@@H](CCCCN)C(=O)N[C@@H](CC(C)C)C(=O)N[C@@H](CCC(N)=O)C(=O)N[C@@H](CC(=O)O)C(=O)N[C@H](C(=O)N[C@@H](Cc1c[nH]cn1)C(=O)N[C@@H](CC(N)=O)C(=O)N[C@@H](Cc1ccccc1)C(=O)O)C(C)C)C(C)C [SEQ ID NO: 53] | 71 | 1.8 |  |
| CC[C@H](C)[C@H](NC(=O)[C@H](CCC(=O)O)NC(=O)[C@H](CO)NC(=O)[C@@H](NC(=O)[C@H](CO)NC(=O)[C@@H]1CCCCN1C(=O)[C@@H](N)CCCCNC(=O)CC[C@H](NC(=O)CCCCCCCCCCCCCCCCC(=O)O)C(=O)O)C(C)C)C(=O)N[C@@H](CCC(N)=O)C(=O)N[C@@H](CC(C)C)C(=O)N[C@@H](CCSC)C(=O)N[C@@H](Cc1c[nH]cn1)C(=O)N[C@@H](CC(N)=O)C(=O)N[C@@H](CC(C)C)C(=O)NCC(=O)N[C@@H](CCCCN)C(=O)N[C@@H](Cc1c[nH]cn1)C(=O)N[C@@H](CC(C)C)C(=O)N[C@@H](CC(N)=O)C(=O)N[C@@H](CO)C(=O)N[C@@H](CCSC)C(=O)N[C@@H](CCC(=O)O)C(=O)N[C@@H](CCCNC(=N)N)C(=O)N[C@H](C(=O)N[C@@H](CCC(=O)O)C(=O)N[C@@H](Cc1c[nH]c2ccccc12)C(=O)N[C@@H](CC(C)C)C(=O)N[C@@H](CCCNC(=N)N)C(=O)N[C@@H](CCCCN)C(=O)N[C@@H](CCCCN)C(=O)N[C@@H](CC(C)C)C(=O)N[C@@H](CCC(N)=O)C(=O)N[C@@H](CC(=O)O)C(=O)N[C@H](C(=O)N[C@@H](Cc1c[nH]cn1)C(=O)N[C@@H](CC(N)=O)C(=O)N[C@@H](Cc1ccccc1)C(=O)O)C(C)C)C(C)C [SEQ ID NO: 54] | 250 |  | Half life, fold slower than Sar (vs SEQ ID NO: 52) ([1]; comparator SEQ ID NO: 52): 1.9 slower than Sar |
| CC[C@H](C)[C@H](NC(=O)[C@H](CCC(=O)O)NC(=O)[C@H](CO)NC(=O)[C@@H](NC(=O)[C@@H](N)CO)C(C)C)C(=O)N[C@@H](CCC(N)=O)C(=O)N[C@@H](CC(C)C)C(=O)N[C@@H](CCSC)C(=O)N[C@@H](Cc1c[nH]cn1)C(=O)N[C@@H](CC(N)=O)C(=O)N[C@@H](CC(C)C)C(=O)NCC(=O)N[C@@H](CCCCN)C(=O)N[C@@H](Cc1c[nH]cn1)C(=O)N[C@@H](CC(C)C)C(=O)N[C@@H](CC(N)=O)C(=O)N[C@@H](CO)C(=O)N[C@@H](CCSC)C(=O)N[C@@H](CCC(=O)O)C(=O)N[C@@H](CCCNC(=N)N)C(=O)N[C@H](C(=O)N[C@@H](CCC(=O)O)C(=O)N[C@@H](Cc1c[nH]c2ccccc12)C(=O)N[C@@H](CC(C)C)C(=O)N[C@@H](CCCNC(=N)N)C(=O)N[C@@H](CCCCN)C(=O)N[C@@H](CCCCN)C(=O)N[C@@H](CC(C)C)C(=O)N[C@@H](CCC(N)=O)C(=O)N[C@@H](CC(=O)O)C(=O)N[C@H](C(=O)N[C@@H](Cc1c[nH]cn1)C(=O)N[C@@H](CC(N)=O)C(=O)N[C@@H](Cc1ccccc1)C(=O)N[C@@H](CCCCNC(=O)CC[C@H](NC(=O)CCCCCCCCCCCCCCCCC(=O)O)C(=O)O)C(N)=O)C(C)C)C(C)C [SEQ ID NO: 56] |  |  | potency at the PTH receptor (PTH1 receptor; FIGS. 3A, 3B, luciferase reporter of cAMP production): retains high potency; EC50 (PTH1 receptor; HEK293 cells, PTH1 receptor, cAMP-responsive luciferase, 5 hours, read-out: Potency EC50): 2.9 nM |
| CC[C@H](C)[C@H](NC(=O)[C@H](CCC(=O)O)NC(=O)[C@H](CO)NC(=O)[C@@H](NC(=O)[C@H](CO)NC(=O)CN(C)C(=O)[C@H](N)CCCCN)C(C)C)C(=O)N[C@@H](CCC(N)=O)C(=O)N[C@@H](CC(C)C)C(=O)N[C@@H](CCSC)C(=O)N[C@@H](Cc1c[nH]cn1)C(=O)N[C@@H](CC(N)=O)C(=O)N[C@@H](CC(C)C)C(=O)NCC(=O)N[C@@H](CCCCN)C(=O)N[C@@H](Cc1c[nH]cn1)C(=O)N[C@@H](CC(C)C)C(=O)N[C@@H](CC(N)=O)C(=O)N[C@@H](CO)C(=O)N[C@@H](CCSC)C(=O)N[C@@H](CCC(=O)O)C(=O)N[C@@H](CCCNC(=N)N)C(=O)N[C@H](C(=O)N[C@@H](CCC(=O)O)C(=O)N[C@@H](Cc1c[nH]c2ccccc12)C(=O)N[C@@H](CC(C)C)C(=O)N[C@@H](CCCNC(=N)N)C(=O)N[C@@H](CCCCN)C(=O)N[C@@H](CCCCN)C(=O)N[C@@H](CC(C)C)C(=O)N[C@@H](CCC(N)=O)C(=O)N[C@@H](CC(=O)O)C(=O)N[C@H](C(=O)N[C@@H](Cc1c[nH]cn1)C(=O)N[C@@H](CC(N)=O)C(=O)N[C@@H](Cc1ccccc1)C(=O)N[C@@H](CCCCNC(=O)CC[C@H](NC(=O)CCCCCCCCCCCCCCCCC(=O)O)C(=O)O)C(N)=O)C(C)C)C(C)C [SEQ ID NO: 57] | 49 |  | Half life, fold faster (vs SEQ ID NO: 45) ([1]; comparator SEQ ID NO: 45): 1.8 faster without |
